System: Glycine max
Assay: Inhibition of soybean 15-lipoxygenase

| Compound | inhibition |
| --- | --- |
| O=C(O)c1cc(O)c(O)c(O)c1 | 60.5% |
| O=C(O)/C=C/c1ccc(O)c(O)c1 | 36.2% |
| O=C(O)c1ccc(O)cc1 | 47.6% |
| COc1cc(C(=O)O)ccc1O | 45.4% |
| O=C(O)c1cc(O)ccc1O | 49.9% |
| O=C(O)c1ccccc1O | 48.4% |
| O=C(O)c1cc(O)cc(O)c1 | 58.1% |
| O=C(O)c1c(O)cccc1O | 21.2% |
| O=C(O)c1ccc(O)cc1O | 47.7% |
| O=C(O)c1ccc(O)c(O)c1 | 73.3% |
| O=C(O)c1cccc(O)c1 | 46% |
| O=C(O)c1ccccc1 | 51.6% |
| O=C(O)c1cccc(O)c1O | 47% |

Reference: ChEMBL document CHEMBL1149861, “Inhibition of 15-lipoxygenase-catalysed oxygenation of arachidonic acid by substituted benzoic acids” (Bioorg Med Chem, 2008)
